# According to patent US10010589B2, “Modified therapeutic agents, stapled peptide lipid conjugates, and compositions thereof” (priority 2013, dated 2018):
# Like-named read-outs stand apart in the source and are kept apart here. *1 amine or outer side, *2 acyl side, *3 side chain or, on linkers, in order; H or OH if unused. Where a SMILES comes first, the peptide text is derived from it. Bridges are numbered along the chain shown (N, C = ends). [ ]: non-standard residue; d: D form. CH2CONH(CH2)4NHCOCH2 = O=C(C[*:1])NCCCCNC(=O)C[*:2]; CH2CONHCH2CH2NHCOCH2 = O=C(C[*:1])NCCNC(=O)C[*:2]; X1 = O=C(c1ccc(C[*:1])cc1)c1ccc(C[*:2])cc1
# Tests used:
# [1] = biological target: T1, human glucagon-like peptide 1 receptor (GLP-1R) (Homo sapiens, UniProt P43220); experiment: cell-based
# T1 construct: expressed in transfected cells
# Protocol: (§1) HEK293 cells were infected with lent virus encoding firefly luciferase gene under the control of CRE promoter, as described in the manual (Qiagen, Netherlands) and then were selected using 1 μg/mL puromycin (Life technologies, Carlsbad) for 1 week. The survived cells were named as CRE-HEK293, expanded and then transfected with a G418 selective mammalian expression plasmid encoding human GCGR, GLP-1R, GIPR or GLP-2R. In brief, GCGR, GLP-1R, GIPR, or GLP-2R plasmid was transfected into CRE-HEK293 cells using Lipofectamine 2000 and selected with 400 μg/mL geneticin (Life technologies, Carlsbad, Calif.). Single colony stable cell lines overexpressing both CRE-luciferase and GCGR, GLP-1R, GIPR, or GLP-2R were then established for in vitro activity assays. These four stable cell lines were named as HEK293-GCGR-CRE, HEK293-GLP-1R-CRE, HEK293-GIPR-CRE, and HEK293-GLP-2R-CRE.
# (§2) Cells were treated with different peptides in a dose dependent manner. On the next day, 10 μl of Bright-Glo reagent (Promega, Madison, Wis.) were added into each well and firefly luminescence was determined using an Envision multilabel plate reader (PerkinElmer, Waltham, Mass.). EC50 of each peptide was calculated using GraphPad Prism 6 software (GraphPad, San Diego, Calif.).
# [2] = biological target: T2, human Glucose-dependent insulinotropic polypeptide receptor (GIPR) (Homo sapiens, UniProt P48546); experiment: GIPR CRE luciferase assay (receptor-mediated cAMP synthesis); format: cell-based
# T2 construct: expressed in transfected cells
# T2 sequence (P48546 22-466): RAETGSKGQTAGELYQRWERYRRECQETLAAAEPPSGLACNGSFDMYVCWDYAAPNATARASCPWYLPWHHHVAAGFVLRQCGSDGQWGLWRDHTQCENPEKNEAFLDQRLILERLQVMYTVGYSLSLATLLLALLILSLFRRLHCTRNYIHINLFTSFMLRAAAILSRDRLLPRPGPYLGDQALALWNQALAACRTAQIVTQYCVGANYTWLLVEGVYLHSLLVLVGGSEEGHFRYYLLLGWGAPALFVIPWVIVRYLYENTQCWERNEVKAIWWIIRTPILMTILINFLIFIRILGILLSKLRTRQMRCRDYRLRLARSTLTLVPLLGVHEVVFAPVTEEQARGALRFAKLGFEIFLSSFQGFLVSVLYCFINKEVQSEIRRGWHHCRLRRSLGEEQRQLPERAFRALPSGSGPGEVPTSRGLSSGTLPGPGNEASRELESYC
# Protocol: (§3) CREB responsive luciferase stable HEK 293 cell line overexpressing human glucagon receptor (GCGR), glucagon-like peptide 1 receptor (GLP-1R), Glucose-dependent insulinotropic polypeptide receptor (GIPR), or Glucagon-like peptide 2 receptor (GLP-2R) was generated as follows.
# as §1, with “Single colony stable cell lines overexpressing both CRE-luciferase and GCGR, GLP-1R, GIPR, or GLP-2R were then established for in vitro activity assays. These four stable cell lines were named as HEK293-GCGR-CRE, HEK293-GLP-1R-CRE, HEK293-GIPR-CRE, and HEK293-GLP-2R-CRE.” left out
# as §2, with “HEK293-GCGR-CRE, HEK293-GLP-1R-CRE, HEK293-GIPR-CRE, and HEK293-GLP-2R-CRE cells” for “Cells”, “seeded” for “treated with different peptides”, “white 384-well plate at a density of 5,000 cells per well and cultured for 24 hours. […]” for “dose dependent manner.”
# [3] = biological target: T3, human glucagon receptor (GCGR) (Homo sapiens, UniProt P47871); experiment: GCGR CRE luciferase assay (receptor-mediated cAMP synthesis); format: cell-based
# T3 construct: expressed in transfected cells
# Protocol: as §3, §1
# as §2, with “HEK293-GCGR-CRE, HEK293-GLP-1R-CRE, HEK293-GIPR-CRE, and HEK293-GLP-2R-CRE cells were seeded in a white 384-well plate at a density of 5,000 cells per well and cultured for 24 hours. Cells” for “Cells”
# [4] = HEK293-GLP-1R-CRE cells, luciferase readout, Table 6, read-out: GLP-1R (EC50)
# T3 sequence (P47871 26-477): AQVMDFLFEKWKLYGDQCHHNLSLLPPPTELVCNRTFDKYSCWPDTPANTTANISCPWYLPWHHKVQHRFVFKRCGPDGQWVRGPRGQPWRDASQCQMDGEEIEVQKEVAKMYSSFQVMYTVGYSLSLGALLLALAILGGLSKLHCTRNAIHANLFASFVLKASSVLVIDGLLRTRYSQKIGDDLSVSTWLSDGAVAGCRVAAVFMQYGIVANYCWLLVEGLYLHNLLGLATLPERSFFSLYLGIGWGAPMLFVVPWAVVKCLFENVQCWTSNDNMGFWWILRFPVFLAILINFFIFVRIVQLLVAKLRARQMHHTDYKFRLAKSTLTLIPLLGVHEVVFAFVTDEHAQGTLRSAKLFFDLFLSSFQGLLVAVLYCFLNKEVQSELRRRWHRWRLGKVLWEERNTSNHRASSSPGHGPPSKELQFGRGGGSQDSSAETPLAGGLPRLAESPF
# T1 sequence (P43220 24-463): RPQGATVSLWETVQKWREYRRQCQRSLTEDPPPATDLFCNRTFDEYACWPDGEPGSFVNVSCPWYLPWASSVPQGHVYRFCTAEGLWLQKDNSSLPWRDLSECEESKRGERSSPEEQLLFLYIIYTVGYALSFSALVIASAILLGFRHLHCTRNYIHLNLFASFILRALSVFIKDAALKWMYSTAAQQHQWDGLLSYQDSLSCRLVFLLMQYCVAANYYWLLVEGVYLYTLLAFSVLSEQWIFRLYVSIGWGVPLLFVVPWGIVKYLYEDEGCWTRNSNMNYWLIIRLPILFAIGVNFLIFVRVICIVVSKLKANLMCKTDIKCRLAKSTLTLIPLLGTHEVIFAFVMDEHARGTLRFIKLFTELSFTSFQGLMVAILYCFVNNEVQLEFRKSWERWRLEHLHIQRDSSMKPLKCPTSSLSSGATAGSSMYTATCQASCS
structure (smiles),measurement,setting,value
CC[C@H](C)[C@H](NC(=O)[C@H](CO)NC(=O)[C@H](Cc1ccc(O)cc1)NC(=O)[C@H](CC(=O)O)NC(=O)[C@H](CO)NC(=O)[C@@H](NC(=O)[C@H](Cc1ccccc1)NC(=O)[C@@H](NC(=O)CNC(=O)[C@H](CCC(=O)O)NC(=O)[C@@H](C)NC(=O)[C@@H](N)Cc1ccc(O)cc1)[C@@H](C)O)[C@@H](C)O)C(=O)N[C@@H](Cc1ccc(O)cc1)C(=O)N[C@@H](CC(C)C)C(=O)N[C@@H](CC(=O)O)C(=O)N[C@@H](CCCCN)C(=O)N[C@H]1CSCC(=O)NCCCCNC(=O)CSC[C@@H](C(=O)N[C@@H](Cc2c[nH]c3ccccc23)C(=O)N[C@@H](CC(C)C)C(=O)N[C@@H](CC(C)C)C(=O)N[C@@H](C)C(=O)NCC(=O)NCC(=O)N2CCC[C@H]2C(=O)N[C@@H](CO)C(=O)N[C@@H](CO)C(=O)NCC(=O)N[C@@H](C)C(=O)N2CCC[C@H]2C(=O)N2CCC[C@H]2C(=O)N2CCC[C@H]2C(=O)N[C@@H](CO)C(=O)N[C@@H](CCCCN)C(N)=O)NC(=O)[C@H](C(C)C)NC(=O)[C@H](Cc2ccccc2)NC(=O)[C@H](CCC(=O)O)NC(=O)[C@H](CCCCN)NC(=O)[C@H](C)NC(=O)[C@H](C)NC1=O [mTA40] (H-Y[dA]EGTFTSDYSIYLDKCAAKEFVCWLLAGGPSSGAPPPSK-NH2; linker 17-24 via CH2CONH(CH2)4NHCOCH2),EC50,[1],0.02 nM
same,EC50,[2],0.02 nM
CC[C@H](C)[C@H](NC(=O)[C@H](CC(N)=O)NC(=O)[C@H](CC(N)=O)NC(=O)[C@H](CCCNC(=N)N)NC(=O)[C@H](CC(N)=O)NC(=O)[C@H](CCCNC(=N)N)NC(=O)[C@H](CCCCN)NC(=O)[C@@H](NC(=O)[C@H](CC(N)=O)NC(=O)[C@H](CCSC)NC(=O)[C@H](CC(C)C)NC(=O)[C@H](Cc1c[nH]c2ccccc12)NC(=O)[C@@H]1CSCc2ccc(cc2)C(=O)c2ccc(cc2)CSC[C@H](NC(=O)[C@H](CCC(=O)O)NC(=O)[C@H](CC(=O)O)NC(=O)[C@H](CC(C)C)NC(=O)[C@H](Cc2ccc(O)cc2)NC(=O)[C@H](CCCCN)NC(=O)[C@H](CO)NC(=O)[C@H](Cc2ccc(O)cc2)NC(=O)[C@H](CC(=O)O)NC(=O)[C@H](CO)NC(=O)[C@@H](NC(=O)[C@H](Cc2ccccc2)NC(=O)[C@@H](NC(=O)CNC(=O)[C@H](CCC(N)=O)NC(=O)[C@@H](CO)NC(=O)[C@@H](N)Cc2c[nH]cn2)[C@@H](C)O)[C@@H](C)O)C(=O)N[C@@H](C)C(=O)N[C@@H](C)C(=O)N[C@@H](CCCCN)C(=O)N[C@@H](CCC(=O)O)C(=O)N[C@@H](Cc2ccccc2)C(=O)N[C@@H]([C@@H](C)CC)C(=O)N1)[C@@H](C)O)C(=O)N[C@@H](C)C(N)=O [mTA21] (H-H[dS]QGTFTSDYSKYLDECAAKEFICWLMNTKRNRNNIA-NH2; linker 17-24 via X1),EC50,[1]; [4],0.12 nM
same,EC50,[3],0.7 nM
CC[C@H](C)[C@H](NC(=O)[C@H](CC(N)=O)NC(=O)[C@H](CC(N)=O)NC(=O)[C@H](CCCNC(=N)N)NC(=O)[C@H](CC(N)=O)NC(=O)[C@H](CCCNC(=N)N)NC(=O)[C@H](CCCCN)NC(=O)[C@@H](NC(=O)[C@H](CC(N)=O)NC(=O)[C@H](CCSC)NC(=O)[C@H](CC(C)C)NC(=O)[C@H](Cc1c[nH]c2ccccc12)NC(=O)[C@@H]1CSCC(=O)NCCCCNC(=O)CSC[C@H](NC(=O)[C@H](CCC(=O)O)NC(=O)[C@H](CC(=O)O)NC(=O)[C@H](CC(C)C)NC(=O)[C@H](Cc2ccc(O)cc2)NC(=O)[C@H](CCCCN)NC(=O)[C@H](CO)NC(=O)[C@H](Cc2ccc(O)cc2)NC(=O)[C@H](CC(=O)O)NC(=O)[C@H](CO)NC(=O)[C@@H](NC(=O)[C@H](Cc2ccccc2)NC(=O)[C@@H](NC(=O)CNC(=O)[C@H](CCC(=O)O)NC(=O)[C@@H](C)NC(=O)[C@@H](N)Cc2ccc(O)cc2)[C@@H](C)O)[C@@H](C)CC)C(=O)N[C@@H](C)C(=O)N[C@@H](C)C(=O)N[C@@H](CCCCN)C(=O)N[C@@H](CCC(=O)O)C(=O)N[C@@H](Cc2ccccc2)C(=O)N[C@@H]([C@@H](C)CC)C(=O)N1)[C@@H](C)O)C(=O)N[C@@H](C)C(N)=O [mTA44] (H-Y[dA]EGTFISDYSKYLDECAAKEFICWLMNTKRNRNNIA-NH2; linker 17-24 via CH2CONH(CH2)4NHCOCH2),EC50,"[1]; HEK293-GLP-1R-CRE cells, luciferase readout, Table 8, read-out: GLP-1R (EC50)",9.7 nM
same,EC50,[3],1.6 nM
same,EC50,"[2]; HEK293-GIPR-CRE cells, luciferase readout, Table 8, read-out: GIP-R (EC50)",0.04 nM
CC[C@H](C)[C@@H]1NC(=O)[C@H](Cc2ccccc2)NC(=O)[C@H](CCC(=O)O)NC(=O)[C@H](CCCCN)NC(=O)[C@H](C)NC(=O)[C@H](C)NC(=O)[C@@H](NC(=O)[C@H](CCC(=O)O)NC(=O)[C@H](CC(=O)O)NC(=O)[C@H](CC(C)C)NC(=O)[C@H](Cc2ccc(O)cc2)NC(=O)[C@H](CCCCN)NC(=O)[C@H](CO)NC(=O)[C@H](Cc2ccc(O)cc2)NC(=O)[C@H](CC(=O)O)NC(=O)[C@H](CO)NC(=O)[C@@H](NC(=O)[C@H](Cc2ccccc2)NC(=O)[C@@H](NC(=O)CNC(=O)[C@H](CCC(N)=O)NC(=O)[C@@H](CO)NC(=O)[C@@H](N)Cc2c[nH]cn2)[C@@H](C)O)[C@@H](C)O)CSCC(=O)NCCCCNC(=O)CSC[C@@H](C(=O)N[C@@H](Cc2c[nH]c3ccccc23)C(=O)N[C@@H](CC(C)C)C(=O)N[C@@H](CC(C)C)C(=O)N[C@@H](CCCNC(=N)N)C(=O)N[C@@H](C)C(N)=O)NC1=O [mTA29] (H-H[dS]QGTFTSDYSKYLDECAAKEFICWLLRA-NH2; linker 17-24 via CH2CONH(CH2)4NHCOCH2),EC50,[1]; [4],0.03 nM
same,EC50,[3],0.03 nM
CC[C@H](C)[C@H](NC(=O)[C@H](CC(N)=O)NC(=O)[C@H](CC(N)=O)NC(=O)[C@H](CCCNC(=N)N)NC(=O)[C@H](CC(N)=O)NC(=O)[C@H](CCCNC(=N)N)NC(=O)[C@H](CCCCN)NC(=O)[C@@H](NC(=O)[C@H](CC(N)=O)NC(=O)[C@H](CCSC)NC(=O)[C@H](CC(C)C)NC(=O)[C@H](Cc1c[nH]c2ccccc12)NC(=O)[C@@H]1CSCC(=O)NCCNC(=O)CSC[C@H](NC(=O)[C@H](CCC(=O)O)NC(=O)[C@H](CC(=O)O)NC(=O)[C@H](CC(C)C)NC(=O)[C@H](Cc2ccc(O)cc2)NC(=O)[C@H](CCCCN)NC(=O)[C@H](CO)NC(=O)[C@H](Cc2ccc(O)cc2)NC(=O)[C@H](CC(=O)O)NC(=O)[C@H](CO)NC(=O)[C@@H](NC(=O)[C@H](Cc2ccccc2)NC(=O)[C@@H](NC(=O)CNC(=O)[C@H](CCC(N)=O)NC(=O)[C@@H](CO)NC(=O)[C@@H](N)Cc2c[nH]cn2)[C@@H](C)O)[C@@H](C)O)C(=O)N[C@@H](C)C(=O)N[C@@H](C)C(=O)N[C@@H](CCCCN)C(=O)N[C@@H](CCC(=O)O)C(=O)N[C@@H](Cc2ccccc2)C(=O)N[C@@H]([C@@H](C)CC)C(=O)N1)[C@@H](C)O)C(=O)N[C@@H](C)C(N)=O [mTA24] (H-H[dS]QGTFTSDYSKYLDECAAKEFICWLMNTKRNRNNIA-NH2; linker 17-24 via CH2CONHCH2CH2NHCOCH2),EC50,[1]; [4],0.2 nM
same,EC50,[3],3 nM
